Measurements: US11572564B2, “Microorganisms for producing 1,4-butanediol and methods related thereto” (priority 2011, dated 2023)

Assays:
E. coli = E. coli CO tolerance experiment (anaerobic growth with saturating CO); type: cell-based; details: levels achievable at normal atmospheric pressure
Procedure: To test whether or not E. coli can grow anaerobically in the presence of saturating amounts of CO, cultures were set up in 120 ml serum bottles with 50 ml of Terrific Broth medium (plus reducing solution, NiCl2, Fe(II)NH4SO4, cyanocobalamin, IPTG, and chloramphenicol) as described above for anaerobic microbiology in small volumes. One half of these bottles were equilibrated with nitrogen gas for 30 min. and one half was equilibrated with CO gas for 30 min. An empty vector (pZA33) was used as a control, and cultures containing the pZA33 empty vector as well as both ACS90 and ACS91 were tested with both N2 and CO. All were inoculated and grown for 36 hrs with shaking (250 rpm) at 37° C. […] The bulk of the observed growth occurred overnight with a long lag.

[1] = 20° C. and 1 atm; cited from earlier work

[C-]#[O+] [CO]
sensitivity of laboratory strains of E. coli to CO (E. coli): insensitive | maximum water solubility [1]: 970 µM
